Patent publication US20260337246A1, “METHODS FOR TREATING OBESITY” (Zealand Pharma A/S, priority 2022, published 2026)

Assay: Predicted half-life in humans

Compound: CC[C@H](C)[C@H](NC(=O)[C@H](Cc1ccccc1)NC(=O)[C@H](C)NC(=O)[C@H](CCC(N)=O)NC(=O)[C@H](C)NC(=O)[C@H](C)NC(=O)[C@H](CCCCNC(=O)COCCOCCNC(=O)COCCOCCNC(=O)CN1CCN(C(=O)CCCCCCCCCCCCCCCCCCC(=O)O)CC1)NC(=O)[C@H](CCCCN)NC(=O)[C@H](CC(=O)O)NC(=O)[C@H](CC(C)C)NC(=O)[C@H](CCC(=O)O)NC(=O)[C@@H](NC(=O)[C@H](CO)NC(=O)[C@H](Cc1ccc(O)cc1)NC(=O)[C@H](CC(=O)O)NC(=O)[C@H](CO)NC(=O)[C@@H](NC(=O)[C@H](Cc1ccccc1)NC(=O)[C@@H](NC(=O)CNC(=O)[C@H](CCC(=O)O)NC(=O)C(C)(C)NC(=O)[C@@H](N)Cc1ccc(O)cc1)[C@@H](C)O)[C@@H](C)CC)[C@@H](C)CC)C(=O)N[C@@H](CCC(=O)O)C(=O)N[C@@H](Cc1c[nH]c2ccccc12)C(=O)N[C@@H](CC(C)C)C(=O)N[C@@H](CC(C)C)C(=O)N[C@@H](C)C(=O)N[C@@H](CCC(N)=O)C(=O)NCC(=O)N1CCC[C@H]1C(=O)N[C@@H](CO)C(=O)N[C@@H](CO)C(=O)NCC(=O)N[C@@H](C)C(=O)N1CCC[C@H]1C(=O)N1CCC[C@H]1C(=O)N1CCC[C@H]1C(=O)N[C@@H](CO)C(N)=O [Compound 41]
- predicted half-life (in words): half-life supporting once-weekly dosing in humans
